biological target: T1, Nucleoside Transporter (Homo sapiens, UniProt Q99808); test: not given; conditions: pH 7.4
T1 sequence (Q99808 1-456): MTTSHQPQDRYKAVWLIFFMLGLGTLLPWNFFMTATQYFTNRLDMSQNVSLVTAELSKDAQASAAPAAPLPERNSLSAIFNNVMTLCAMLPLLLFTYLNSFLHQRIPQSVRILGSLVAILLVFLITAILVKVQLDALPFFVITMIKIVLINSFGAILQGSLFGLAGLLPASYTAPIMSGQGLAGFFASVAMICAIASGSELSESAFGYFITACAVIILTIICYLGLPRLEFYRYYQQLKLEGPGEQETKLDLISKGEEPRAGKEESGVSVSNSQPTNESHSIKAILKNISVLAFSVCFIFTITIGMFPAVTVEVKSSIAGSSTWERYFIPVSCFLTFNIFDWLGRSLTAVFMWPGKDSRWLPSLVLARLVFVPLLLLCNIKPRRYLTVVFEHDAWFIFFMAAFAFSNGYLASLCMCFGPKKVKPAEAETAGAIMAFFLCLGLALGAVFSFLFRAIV

| Ki | Compound |
| --- | --- |
| 0.94 nM | 6-benzyl-8-(cyclohexylamino)-thioinosine [Example 10] |
| 5.4 nM | 6-benzyl-8-(n-butylamino)-thioinosine [Example 4] |
| 2.3 nM | 6-benzyl-8-(n-pentylamino)-thioinosine [Example 5] |
| 1520 nM | 9-benzyl-6-(4-nitrobenzyl)-8-pyrrolidino-mercaptopurine [Example 16] |
| 9.5 nM | CCNc1nc2c(SCc3ccccc3)ncnc2n1[C@@H]1O[C@H](CO)[C@@H](O)[C@H]1O [Example 2, 6-benzyl-8-ethylamino-thioinosine] |
| 5.3 nM | CCCNc1nc2c(SCc3ccccc3)ncnc2n1[C@@H]1O[C@H](CO)[C@@H](O)[C@H]1O [Example 3, 6-benzyl-8-(n-propylamino)-thioinosine] |
| 3.6 nM | CCC(C)CNc1nc2c(SCc3ccccc3)ncnc2n1[C@@H]1O[C@H](CO)[C@@H](O)[C@H]1O (stereo partly shown) [Example 7, 6-benzyl-8-[(2-methyl-butyl)-amino]-thioinosine] |
| 3 nM | OC[C@H]1O[C@@H](n2c(NC3CC3)nc3c(SCc4ccccc4)ncnc32)[C@H](O)[C@@H]1O [Example 8, 6-benzyl-8-(cyclopropylamino)-thioinosine] |
| 0.64 nM | OC[C@H]1O[C@@H](n2c(NC3CCCC3)nc3c(SCc4ccccc4)ncnc32)[C@H](O)[C@@H]1O [Example 9, 6-benzyl-8-(cyclopentylamino)-thioinosine] |
| 410 nM | OC[C@H]1O[C@@H](n2c(N3CCCC3)nc3c(SCc4ccccc4)ncnc32)[C@H](O)[C@@H]1O [Example 11, 6-benzyl-8-pyrrolidino-thioinosine] |
| 744 nM | OC[C@H]1O[C@@H](n2c(N3CCCCC3)nc3c(SCc4ccccc4)ncnc32)[C@H](O)[C@@H]1O [Example 12, 6-benzyl-8-piperidino-thioinosine] |
| 29 nM | O=[N+]([O-])c1ccc(CSc2ncnc3c2nc(NC2CCCC2)n3Cc2ccccc2)cc1 [Example 14, 9-benzyl-8-(cyclopentylamine)-6-(4-nitrobenzyl)-mercaptopurine] |
| 55 nM | O=[N+]([O-])c1ccc(CSc2ncnc3c2nc(NC2CCCCC2)n3Cc2ccccc2)cc1 [Example 15, 9-benzyl-8-(cyclohexylamine)-6-(4-nitrobenzyl)-mercaptopurine] |

biological target: T1, Nucleoside Transporter; test: biochemical; conditions: not given

| Ki | Compound |
| --- | --- |
| 122 nM | c1ccc(Cn2c(N3CCOCC3)nc3c(SCc4ccc5nonc5c4)ncnc32)cc1 [Example 19, 6-(benzo[c][1,2,5]oxadiazole-5-ylmethylsulfanyl)-9-benzyl-8-morpholin-4-yl-9H-purine] |
| 1390 nM | c1ccc(CSc2ncnc3c2nc(N2CCOCC2)n3Cc2ccccc2)cc1 [Example 20, 9-benzyl-6-benzylsulfanyl-8-morpholin-4-yl-9H-purine] |
| 514 nM | c1ccc(CSc2ncnc3c2nc(N2CCCC2)n3Cc2ccccc2)cc1 [Example 21, 9-benzyl-6-benzylsulfanyl-8-pyrrolidin-1-yl-9H-purine] |

tested on: not given; test: not given; conditions: not given

| melting point | Compound |
| --- | --- |
| 150 to 151 °C | O=[N+]([O-])c1ccc(CSc2ncnc3c2nc(NC2CCCC2)n3Cc2ccccc2)cc1 [Example 14, 9-benzyl-8-(cyclopentylamine)-6-(4-nitrobenzyl)-mercaptopurine] |
| 66 to 68 °C | O=[N+]([O-])c1ccc(CSc2ncnc3c2nc(NC2CCCCC2)n3Cc2ccccc2)cc1 [Example 15, 9-benzyl-8-(cyclohexylamine)-6-(4-nitrobenzyl)-mercaptopurine] |

biological target: T1, Nucleoside Transporter; test: radioligand binding assay with [3H]NBTI on human erythrocyte membranes; conditions: [[…] 1.5 nM, test concentration not printed (footnote c missing)

| Compound | Binding Nucleoside Transporter (value printed as % in the Ki column) |
| --- | --- |
| OC[C@H]1O[C@@H](n2c(N3CCOCC3)nc3c(SCc4ccccc4)ncnc32)[C@H](O)[C@@H]1O [Example 13] | 33%^c |
